Measurements: patent EP3046573B1, “AMYLIN ANALOGUES” (Zealand Pharma A/S, priority 2013, dated 2015)
pEC50: −log10 of the molar value. Numbered stars: 1 amine (or outer) side, 2 acyl side, 3 side chain; on linkers, the order of the positions; unused ones are H or OH. Bridge positions count the residues as written; N and C are the ends. Square brackets hold non-standard residues; d marks the D form. Peptide text beside a SMILES is read from it. * marks the point of attachment. C20 diacid = O=C(O)CCCCCCCCCCCCCCCCCCC(=O)*; γGlu = O=C(O)[C@H](CCC(=O)[*:2])N[*:1]; NMeI = CC[C@H](C)[C@H](NC)C(=O)O; Sar = CNCC(=O)O

Tests used:
[1] = biological target: T1, human amylin receptor 3 (hAMYR3) consisting of hCTR2 co-expressed with human Receptor Activity Modifying Protein 3 (hRAMP3) (Homo sapiens, UniProt O60896+P30988); experiment: hAMYR3 assay: induction of cAMP (AlphaScreen cAMP Assay kit) in COS7 cells expressing hAMYR3; type: cell-based
T1 construct: expressed in transfected cells
T1 sequence (P30988 25-474): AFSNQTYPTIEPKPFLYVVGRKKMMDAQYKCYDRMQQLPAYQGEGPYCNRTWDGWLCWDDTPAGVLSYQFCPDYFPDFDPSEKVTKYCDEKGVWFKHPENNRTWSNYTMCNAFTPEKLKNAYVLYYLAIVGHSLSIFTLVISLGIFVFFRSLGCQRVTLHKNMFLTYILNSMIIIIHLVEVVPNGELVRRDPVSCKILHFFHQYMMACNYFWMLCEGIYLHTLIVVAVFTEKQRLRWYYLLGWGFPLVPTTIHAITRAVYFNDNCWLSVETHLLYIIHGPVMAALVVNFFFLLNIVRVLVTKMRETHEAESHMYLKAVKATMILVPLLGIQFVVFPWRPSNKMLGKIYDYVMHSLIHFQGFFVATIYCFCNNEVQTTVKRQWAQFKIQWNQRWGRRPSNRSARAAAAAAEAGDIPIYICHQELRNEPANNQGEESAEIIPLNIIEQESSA
T1 sequence (O60896 24-148 partner): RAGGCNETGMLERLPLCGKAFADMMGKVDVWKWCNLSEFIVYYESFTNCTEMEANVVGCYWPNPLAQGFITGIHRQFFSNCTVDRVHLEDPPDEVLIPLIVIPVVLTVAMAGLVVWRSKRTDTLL
Procedure, shortened: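 cAMP accumulation read by AlphaScreen in lysates of RAMP-naive COS7 cells stably transfected with hCTR2 plus hRAMP3. Cells exposed to peptide dilutions for 15 min, 37° C, with 100 µM IBMX; 4PL fitting gave EC50 and efficacy relative to pramlintide.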

[2] = Solubility assessment (turbidity absorbance at 325 nm); type: physicochemical; details: stock 2 mg/ml diluted 1:1, ambient temperature (typically 25°C), n=1; for Solubility, Acetate buffer pH 4: 100 mM acetate buffer pH 4.0; for Solubility, Acetate buffer pH 5: 100 mM acetate buffer pH 5.0; for Solubility, Histidine buffer pH 6: 100 mM histidine buffer pH 6.0; for Solubility, Histidine buffer pH 7: 100 mM histidine buffer pH 7.0; for Solubility, Phosphate buffer pH 6: 100 mM phosphate buffer pH 6.0; for Solubility, Phosphate buffer pH 7: 100 mM phosphate buffer pH 7.0; for Solubility, Phosphate buffer pH 7.5: 100 mM phosphate buffer pH7.5
Procedure, shortened: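 Turbidity read as absorbance at 325 nm (also 280 nm), single samples at ambient temperature (typically 25°C); ≤ 0.02 units counts as ≥ 1 mg/ml soluble. Samples made by 1:1 dilution of a 2 mg/ml acidic stock into 100 mM acetate, histidine or phosphate buffers, pH 4.0–7.5.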

[3] = biological target: T2, human calcitonin receptor (hCTR2) (Homo sapiens, UniProt P30988); experiment: hCTR2 assay: induction of cAMP (AlphaScreen cAMP Assay kit) in COS7 cells expressing hCTR2; type: cell-based
T2 construct: expressed in transfected cells
T2 sequence (P30988 25-474): T1 sequence (P30988 25-474)
Procedure, shortened: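 Peptide-induced cAMP in hCTR2-expressing COS7 cells, 15 min at 37° C with phosphodiesterase inhibitor IBMX (100 µM), detected by AlphaScreen; potency from 4PL curves.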

CC[C@H](C)[C@H](NC(=O)[C@@H](NC(=O)[C@H](CC(N)=O)NC(=O)[C@H](CO)NC(=O)CNC(=O)[C@@H](NC(=O)[C@H](CC(N)=O)NC(=O)[C@@H](NC(=O)[C@H](CO)NC(=O)[C@H](CO)NC(=O)[C@H](CC(C)C)NC(=O)[C@H]([C@@H](C)CC)N(C)C(=O)[C@H](C)NC(=O)CN(C)C(=O)[C@H](Cc1ccccc1)NC(=O)[C@H](CC(N)=O)NC(=O)[C@H](CC(N)=O)NC(=O)[C@H](CO)NC(=O)[C@H](CO)NC(=O)[C@H](CCCNC(=N)N)NC(=O)[C@H](Cc1c[nH]cn1)NC(=O)[C@H](CC(C)C)NC(=O)[C@H](Cc1ccccc1)NC(=O)[C@H](CCC(=O)O)NC(=O)[C@H](C)NC(=O)[C@H](CC(C)C)NC(=O)[C@H](CCCNC(=N)N)NC(=O)[C@H](CCC(N)=O)NC(=O)[C@@H](NC(=O)[C@H](C)NC(=O)[C@@H]1CSSC[C@H](NC(=O)[C@H](CCCNC(=N)N)NC(=O)CC[C@H](NC(=O)CCCCCCCCCCCCCCCCCCC(=O)O)C(=O)O)C(=O)N[C@@H](CC(N)=O)C(=O)N[C@@H]([C@@H](C)O)C(=O)N[C@@H](C)C(=O)N[C@@H]([C@@H](C)O)C(=O)N1)[C@@H](C)O)[C@@H](C)O)C(C)C)[C@@H](C)O)C(N)=O [Compound 99, [19CD]-isoGlu-RC()NTATC()ATQRLAEFLHRSSNNF-Gly(Me)-A-Ile(Me)-LSSTNVGSNTI-NH2] ({C20 diacid-γGlu}-RCNTATCATQRLAEFLHRSSNNF[Sar]A[NMeI]LSSTNVGSNTI-NH2; disulfide 2-7)
pEC50 [1]: 8.66 | Solubility, Acetate buffer pH 4 [2]: SS (SS indicates solubility ≥ 1mg/ml) | Solubility, Acetate buffer pH 5 [2]: SS (SS indicates solubility ≥ 1mg/ml) | Solubility, Histidine buffer pH 6 [2]: SS (SS indicates solubility ≥ 1mg/ml) | Solubility, Histidine buffer pH 7 [2]: SS (SS indicates solubility ≥ 1mg/ml) | Solubility, Phosphate buffer pH 6 [2]: II (II indicates solubility ≤ 1 mg/ml) | Solubility, Phosphate buffer pH 7 [2]: SS (SS indicates solubility ≥ 1mg/ml) | Solubility, Phosphate buffer pH 7.5 [2]: SS (SS indicates solubility ≥ 1mg/ml) | pEC50 [3]: 9.57

CC[C@H](C)[C@@H](C(=O)N[C@@H](CC(C)C)C(=O)N[C@@H](CO)C(=O)N[C@@H](CO)C(=O)N[C@H](C(=O)N[C@@H](CC(N)=O)C(=O)N[C@H](C(=O)NCC(=O)N[C@@H](CO)C(=O)N[C@@H](CC(N)=O)C(=O)N[C@H](C(=O)N[C@@H](CC(C)C)C(N)=O)[C@@H](C)O)C(C)C)[C@@H](C)O)N(C)C(=O)[C@H](C)NC(=O)CN(C)C(=O)[C@H](Cc1ccccc1)NC(=O)[C@H](CC(N)=O)NC(=O)[C@H](CC(N)=O)NC(=O)[C@H](CO)NC(=O)[C@H](CO)NC(=O)[C@H](CCCNC(=N)N)NC(=O)[C@H](Cc1c[nH]cn1)NC(=O)[C@H](CC(C)C)NC(=O)[C@H](Cc1ccccc1)NC(=O)[C@H](CCC(=O)O)NC(=O)[C@H](C)NC(=O)[C@H](CC(C)C)NC(=O)[C@H](CCCNC(=N)N)NC(=O)[C@H](CCC(N)=O)NC(=O)[C@@H](NC(=O)[C@H](C)NC(=O)[C@@H]1CSSC[C@H](NC(=O)[C@H](CCCNC(=N)N)NC(=O)CC[C@H](NC(=O)CCCCCCCCCCCCCCCCCCC(=O)O)C(=O)O)C(=O)N[C@@H](CC(N)=O)C(=O)N[C@@H]([C@@H](C)O)C(=O)N[C@@H](C)C(=O)N[C@@H]([C@@H](C)O)C(=O)N1)[C@@H](C)O [Compound 100, [19CD]-isoGlu-RC()NTATC()ATQRLAEFLHRSSNNF-Gly(Me)-A-Ile(Me)-LSSTNVGSNTL-NH2] ({C20 diacid-γGlu}-RCNTATCATQRLAEFLHRSSNNF[Sar]A[NMeI]LSSTNVGSNTL-NH2; disulfide 2-7)
pEC50 [1]: 8.20 | Solubility, Acetate buffer pH 4 [2]: SS (SS indicates solubility ≥ 1mg/ml) | Solubility, Acetate buffer pH 5 [2]: SS (SS indicates solubility ≥ 1mg/ml) | Solubility, Histidine buffer pH 6 [2]: SS (SS indicates solubility ≥ 1mg/ml) | Solubility, Histidine buffer pH 7 [2]: SS (SS indicates solubility ≥ 1mg/ml) | Solubility, Phosphate buffer pH 6 [2]: II (II indicates solubility ≤ 1 mg/ml) | Solubility, Phosphate buffer pH 7 [2]: SS (SS indicates solubility ≥ 1mg/ml) | Solubility, Phosphate buffer pH 7.5 [2]: SS (SS indicates solubility ≥ 1mg/ml) | pEC50 [3]: 9.43
